This note sets out measurements from ChEMBL document CHEMBL1125945, “Tripyl-convergent total synthesis of a homochiral benzoindane-fused prostacyclin analog” (Bioorg Med Chem Lett, 1991).

pIC50: −log10 of the molar value.

The experiment is filed under the species Homo sapiens. The experiment is described as follows: Compound was tested for inhibitory activity against collagen induced platelet aggregation. Format: functional.

In the case of `O=C(O)COc1cccc2c1[C@H]1C[C@@H](O)[C@H](C#C[C@@H](O)C3CCCCC3)[C@H]1C2`, the pIC50 is 5.60.

Broadly, the pIC50 is the negative decadic logarithm of the IC50, by convention in mol/L. Low readings indicate a high IC50, high ones a low IC50.
